Data reported in a melting point compilation (Tetko et al.; mined from patent text by program, amines drawn as free bases though some values may be those of a salt).

Question: With CCOC(=O)NNc1cc(C)c(-c2cccc([N+](=O)[O-])c2)nn1 as the molecule, how does the melting point read?
Answer: Its melting point is 186 to 187 °C.

Question: For Cc1nc(-c2ccc(Cl)cc2)oc1CO, which melting point is on record?
Answer: Its melting point is 135 °C.

Question: For Cc1ccc(N)cc1Nc1nccc(-c2cncc(Br)c2)n1, which melting point is on record?
Answer: Its melting point is 130 °C.

Question: With O=Cc1nn(-c2ccc(Br)cc2)c2c1CCCC2 as the molecule, how does the melting point read?
Answer: Its melting point is 120 to 121 °C.

Question: With O=C(CCl)NCc1ccc2ccn(C3CCN(CCc4ccc(F)cc4)CC3)c2c1 as the molecule, how does the melting point read?
Answer: Its melting point is 143 to 144 °C.

Question: For CC1CN(S(=O)(=O)c2cc(C#N)ccc2Sc2cc(Cl)ccc2Cl)CC(C)N1 (stereo unspecified), which melting point is on record?
Answer: Its melting point is 160 to 190 °C.

Question: Which melting point does the source give for CCOP(=O)(/C=C/c1cn(-c2ccccc2)nc1OCc1ccc(OCc2nc(-c3ccc(C(N)=O)cc3)oc2C)c(OC)c1)OCC here?
Answer: The melting point was 146 to 148 °C.

Question: For CCC(=O)c1cnc(C(=O)CC)cn1, which melting point is on record?
Answer: Its melting point is 112 °C.

Question: For CC(C)(C)OC(=O)CN1C(=O)SC(Cc2ccc(N3CCC(NCC(O)c4ccc(O)c(NS(C)(=O)=O)c4)CC3)cc2)C1=O (stereo unspecified), which melting point is on record?
Answer: Its melting point is 130 to 132 °C.

Question: For NS(=O)(=O)c1ccc(-c2c(-c3ccccc3)noc2C(=O)O)cc1, which melting point is on record?
Answer: Its melting point is 300 °C.

Question: For CCCCCCCCCCCCCCCCCCN1C(=O)C2(CCCCC2)NC2(CCCCC2)C1=O, which melting point is on record?
Answer: The melting point was 39 to 40 °C.

Question: Which melting point does the source give for C=CCn1cc(C(O)(c2ccc3c(cnn3C(=O)NCC)c2)C(F)(F)F)c2ccccc21 (stereo unspecified) here?
Answer: The melting point was 162 to 164 °C.

Question: For Nc1nc2c(ncn2COCCOCCO)c(=O)[nH]1, which melting point is on record?
Answer: Its melting point is 184 to 187 °C.

Question: For CCOc1cc2c(cc1OCC)-c1c(C#N)sc(=N)n1CC2, which melting point is on record?
Answer: Its melting point is 180 to 182 °C.

Question: With CCOC(=O)N(C)c1c(OC)cc(Cc2cnc(N)nc2N)cc1OC as the molecule, how does the melting point read?
Answer: Its melting point is 187 to 188 °C.

Question: Which melting point does the source give for CNC(=S)Nc1ccc(Cl)nc1 here?
Answer: Its melting point is 164 °C.

Question: For COc1ccc(-c2n[nH]c3c2C(O)c2ccccc2-3)cc1OC (stereo unspecified), which melting point is on record?
Answer: Its melting point is 197 to 199 °C.

Question: Which melting point does the source give for CC(=O)OC1CSC(Oc2cccc(-c3ncccc3Cl)c2)C(OC(C)=O)C1OC(C)=O (stereo unspecified) here?
Answer: The melting point was 148 °C.

Question: For O=C1CC(c2csc(-n3ccnc3)n2)=Nc2ccc(-c3ccc(F)cc3)cc2N1, which melting point is on record?
Answer: Its melting point is 214 °C.

Question: Which melting point does the source give for CC(C)C1(C)N=C(c2nc3ccsc3cc2C(=O)O)NC1=O (stereo unspecified) here?
Answer: Its melting point is 242 to 244 °C.

Question: With CC(C)(C)C(O)(Cn1cncn1)C(Br)=C(Cl)Br (stereo unspecified) as the molecule, how does the melting point read?
Answer: Its melting point is 78 to 81 °C.

Question: With C[C@H](NC(=O)Cc1ccccc1F)C(=O)N[C@@H]1C(=O)Nc2ccccc2O[C@@H]1c1ccccc1 as the molecule, how does the melting point read?
Answer: Its melting point is 115 to 135 °C.

Question: For CC(C)n1c2cc(Cl)ccc2c2oc(C(=O)Cl)cc21, which melting point is on record?
Answer: Its melting point is 141 to 142 °C.

Question: With CC(C)C[C@H](N)C(=O)N[C@@H](CC1CCCCC1)[C@@H](O)c1ccccn1 as the molecule, how does the melting point read?
Answer: Its melting point is 98 to 100 °C.

Question: With CC1=C(c2ccccc2)C(=O)N(C(C)(C)C(=O)Cc2cc(F)cc(F)c2)CO1 as the molecule, how does the melting point read?
Answer: The melting point was 76.5 to 77.5 °C.

Question: Which melting point does the source give for CCCc1[nH]cnc1C(=O)OCC here?
Answer: Its melting point is 175 to 179 °C.

Question: Which melting point does the source give for COCn1nnc(NC(=O)C2c3ccccc3Oc3ccccc32)n1 here?
Answer: Its melting point is 221 to 222 °C.

Question: Which melting point does the source give for N#CCCN1CC2C(C1)C2Nc1ncc2cc(-c3ccccc3Cl)c(=O)n(C3CC3)c2n1 (stereo unspecified) here?
Answer: The melting point was 150 to 152 °C.

Question: Which melting point does the source give for O=C(O)c1ccccc1COc1cccc(Br)c1 here?
Answer: The melting point was 158 to 159 °C.

Question: For O=C(N[C@@H]1CN2CCC1CC2)c1cccc2c1cc1n2CCCC1, which melting point is on record?
Answer: Its melting point is 163 to 164 °C.

Question: For O=[N+]([O-])c1ccc(C(O)C(CO)N2CCC(Cc3ccccc3)CC2)cc1 (stereo unspecified), which melting point is on record?
Answer: The melting point was 122 to 124 °C.

Question: With CC(C)NC(=O)OCC(=O)c1ccc(Cl)cc1 as the molecule, how does the melting point read?
Answer: The melting point was 163 to 164 °C.

Question: For O=CCC1Cc2cc(F)c(F)cc2C1=O (racemic), which melting point is on record?
Answer: The melting point was 78 to 81 °C.

Question: Which melting point does the source give for CC1Oc2ccc(O)cc2C=C1C=O (stereo unspecified) here?
Answer: Its melting point is 107 to 109 °C.

Question: With CC1(C)CCOC1=Cn1cncn1 as the molecule, how does the melting point read?
Answer: The melting point was 47 °C.

Question: For COC(=O)c1nc(-c2cc([N+](=O)[O-])c(Cl)cc2F)cc(N)c1Cl, which melting point is on record?
Answer: The melting point was 161 to 163 °C.

Question: For COc1ccc(Cl)cc1S(=O)(=O)N(C)c1ccccc1, which melting point is on record?
Answer: Its melting point is 88 to 89 °C.

Question: With O=[N+]([O-])c1ccc(OCc2ccccc2)c2cnsc12 as the molecule, how does the melting point read?
Answer: Its melting point is 158 to 160 °C.

Question: For Cn1ncc(/C=C/C(=O)Nc2ccc(CS(C)(=O)=O)cc2)c1-c1ccc(F)cc1, which melting point is on record?
Answer: Its melting point is 251 to 252 °C.

Question: For COc1cccc(CC(=O)O)c1OCCCc1cn(-c2ccc(NC(C)=O)cn2)nc1C(C)C, which melting point is on record?
Answer: Its melting point is 158 to 159 °C.

Question: With CC(C)C[C@H](NC(=O)c1cccc(Cl)c1)C(=O)N[C@@H](C(C)C)[C@@H](O)c1c(-c2ccccc2)c1=O as the molecule, how does the melting point read?
Answer: The melting point was 179 °C.

Question: Which melting point does the source give for NC(=O)Nc1cccc(OCCCCl)c1 here?
Answer: Its melting point is 141 to 143 °C.

Question: For CN1CCN(c2ccnc3sc(C(N)=O)c(N)c23)CC1, which melting point is on record?
Answer: The melting point was 260 to 263 °C.

Question: With CCCCCC(C)C(C)c1cc(O)c2c(c1)oc(=O)c1ccncc12 (stereo unspecified) as the molecule, how does the melting point read?
Answer: The melting point was 122 to 123 °C.

Question: With CCCCCCCCCCCCCCCCC(CO)OC (stereo unspecified) as the molecule, how does the melting point read?
Answer: The melting point was 36 to 38 °C.

Question: With COc1ccc(C(=O)Nc2ccccc2)cc1NCc1ccc([N+](=O)[O-])c(O)c1 as the molecule, how does the melting point read?
Answer: Its melting point is 140 to 143 °C.

Question: With Cc1cc(OC(F)(F)C(F)F)ccc1N1C(=O)c2cccc(Cl)c2C1=O as the molecule, how does the melting point read?
Answer: The melting point was 121 to 122 °C.

Question: For O=C(/C=C/c1cccnc1)NCCc1cccc(OCc2ccccc2)c1, which melting point is on record?
Answer: Its melting point is 115 to 116 °C.

Question: With O=C(Cn1cncc(NC(=O)OCc2ccccc2)c1=O)NC(Cc1ccccc1)C(=O)C(F)(F)F (stereo unspecified) as the molecule, how does the melting point read?
Answer: Its melting point is 132 to 134 °C.

Question: Which melting point does the source give for COc1ccc(CCNC(=O)C(F)(F)F)cc1S(N)(=O)=O here?
Answer: Its melting point is 165 to 166 °C.

Question: Which melting point does the source give for COc1cc(-c2cc(C(F)(F)F)nn2-c2ccc(S(C)(=O)=O)cc2)ccc1-c1cocn1 here?
Answer: The melting point was 171 to 173 °C.
